“And” between values parts separate entries of the source, which are not always exact repeats. Identical values can stand only once.
Target: Voltage-gated inwardly rectifying potassium channel KCNH2 (Homo sapiens, UniProt Q12809)
Test: Determination of a Possible Activity on hERG: The hERG (human ether-A-go-go-related gene) channel corresponds to an important anti-target for potential new drugs since its inhibition may lead to sudden death. In order to establish whether the compounds of the present invention act on hERG, the following experiment was carried out.The in vitro effects of the compounds indicated in Table 5 on the …
Format: cell-based

Sequence of Voltage-gated inwardly rectifying potassium channel KCNH2 (Q12809 whole entry): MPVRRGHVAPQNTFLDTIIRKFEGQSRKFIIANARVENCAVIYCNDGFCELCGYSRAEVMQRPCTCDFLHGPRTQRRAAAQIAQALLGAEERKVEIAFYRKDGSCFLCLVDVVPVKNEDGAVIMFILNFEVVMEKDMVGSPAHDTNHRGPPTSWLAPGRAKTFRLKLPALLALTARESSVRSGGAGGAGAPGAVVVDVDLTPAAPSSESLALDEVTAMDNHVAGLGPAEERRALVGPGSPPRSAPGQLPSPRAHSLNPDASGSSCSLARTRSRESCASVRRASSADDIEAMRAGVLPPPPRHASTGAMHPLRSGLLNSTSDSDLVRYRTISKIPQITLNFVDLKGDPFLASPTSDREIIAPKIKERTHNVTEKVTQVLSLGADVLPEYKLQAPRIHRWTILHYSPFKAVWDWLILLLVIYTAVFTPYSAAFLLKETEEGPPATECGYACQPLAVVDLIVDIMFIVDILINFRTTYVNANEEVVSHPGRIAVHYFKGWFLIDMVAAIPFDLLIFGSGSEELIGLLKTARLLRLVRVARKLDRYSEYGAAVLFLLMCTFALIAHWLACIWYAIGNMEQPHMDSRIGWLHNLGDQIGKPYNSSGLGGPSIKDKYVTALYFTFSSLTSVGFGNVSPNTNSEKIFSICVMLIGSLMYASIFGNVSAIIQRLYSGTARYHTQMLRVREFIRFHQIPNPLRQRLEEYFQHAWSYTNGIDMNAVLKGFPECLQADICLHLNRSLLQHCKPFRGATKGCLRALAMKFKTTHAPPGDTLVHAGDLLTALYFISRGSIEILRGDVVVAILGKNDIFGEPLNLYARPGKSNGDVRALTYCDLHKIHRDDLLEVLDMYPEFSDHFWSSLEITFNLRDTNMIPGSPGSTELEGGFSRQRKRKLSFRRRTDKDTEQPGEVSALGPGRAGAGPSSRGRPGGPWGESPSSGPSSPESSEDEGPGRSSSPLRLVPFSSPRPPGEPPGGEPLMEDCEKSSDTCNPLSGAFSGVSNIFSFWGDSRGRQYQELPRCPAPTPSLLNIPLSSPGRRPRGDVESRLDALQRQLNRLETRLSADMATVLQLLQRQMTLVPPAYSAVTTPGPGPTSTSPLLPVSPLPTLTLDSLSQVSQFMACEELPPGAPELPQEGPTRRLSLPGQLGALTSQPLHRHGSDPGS

SMILES | IC50
CCn1c(N2CCNC(=O)C2)nc2c([N+](=O)[O-])c(Br)c(Br)cc21 | 1.78 µM and 11.9 µM
CCn1c(N2CCNCC2)nc2c([N+](=O)[O-])c(Br)c(Br)cc21 | 16.9 µM

— ChEMBL document CHEMBL5726153, “Benzimidazole derivatives as kinase inhibitors” (2019)
